Like-named read-outs stand apart in the source and are kept apart here. Peptide text beside a SMILES is read from it. * marks the point of attachment. FITC = O=C1OC2(c3ccc(O)cc3Oc3cc(O)ccc32)c2ccc(NC(=S)*)cc21; Farnesyl = CC(C)=CCC/C(C)=C/CC/C(C)=C/C*
Assays:
[1] = test system: PDE6δ; assay: Stopped-flow fluorescence polarization, dissociation of peptides from PDE6δ with and without Arl2/Arl3·GppNHp; type: binding; details: 1 μM PDE6δ, 0.2 μM labelled peptide, 100-fold excess unlabelled peptide, 20 °C, ± s.d., n=4
Source text: Towards an explanation for the possible sorting mechanism that leaves some PDE6δ-cargo in the cell body but allows others to be enriched in the cilia we turned to the release activities of Arl2 and Arl3. […] While Arl2 is a non-ciliary protein, Arl3 localizes along the length of the cilium. Using fluorescence polarization, we measured the release of INPP5E and Rheb peptides from PDE6δ by the addition of Arl2 or Arl3 bound to the non-hydrolysable GTP analogue GppNHp. […] To compare the cargo release kinetics of Arl2·GppNHp and Arl3·GppNHp, we measured the dissociation rate constants of INPP5E and Rheb peptides from PDE6δ in the presence and absence of Arl3·GppNHp or Arl2·GppNHp, by adding a large excess of unlabelled peptide to silence the back reaction. […] The presence of Arl3·GppNHp or Arl2·GppNHp has a similar acceleration effect on the dissociation rate of Rheb peptide from PDE6δ (koff=27.2±0.7 and 15.3±0.3 s^−1, respectively, ±indicates s.d., n=4) (Fig. 2c,d).
Figure 2 INPP5E release from PDE6δ by Arl2·GppNHp and Arl3·GppNHp. (a) Fluorescence polarization measurements of 0.5 μM FITC-labelled Rheb peptide followed by addition of 0.5 μM PDE6δ and the addition of 5 μM Arl2·GppNHp or Arl3·GppNHp (arrow). (b) Fluorescence polarization measurements of 0.2 μM TAMRA-labelled INPP5E peptide followed by the addition of 0.2 μM PDE6δ (arrow) and 5 μM Arl2·GppNHp or Arl3·GppNHp (arrow). (c–f) Stopped-flow fluorescence polarization kinetic experiment where complexes of 1 μM PDE6δ with either 0.2 μM of FITC-labelled Rheb peptide (c,d) or TAMRA-labelled farnesylated INPP5E peptide (e,f) were mixed with 100-fold excess of unlabelled peptide and 10 μM of Arl2 (c,e) or Arl3 (d,f) as indicated.
(§1) All fluorescence polarization measurements were performed at 20 °C in a buffer containing 25 mM Tris-HCl (pH 7.5), 50 mM NaCl and 3 mM DTE. […]

[2] = test system: PDE6δ/farnesylated peptide complex; assay: Fluorescence polarization release of farnesylated peptide from PDE6δ by Arl proteins; type: biochemical
Source text: Towards an explanation for the possible sorting mechanism that leaves some PDE6δ-cargo in the cell body but allows others to be enriched in the cilia we turned to the release activities of Arl2 and Arl3. […] While Arl2 is a non-ciliary protein, Arl3 localizes along the length of the cilium. Using fluorescence polarization, we measured the release of INPP5E and Rheb peptides from PDE6δ by the addition of Arl2 or Arl3 bound to the non-hydrolysable GTP analogue GppNHp. […] To compare the cargo release kinetics of Arl2·GppNHp and Arl3·GppNHp, we measured the dissociation rate constants of INPP5E and Rheb peptides from PDE6δ in the presence and absence of Arl3·GppNHp or Arl2·GppNHp, by adding a large excess of unlabelled peptide to silence the back reaction. […]
Figure 2 INPP5E release from PDE6δ by Arl2·GppNHp and Arl3·GppNHp. (a) Fluorescence polarization measurements of 0.5 μM FITC-labelled Rheb peptide followed by addition of 0.5 μM PDE6δ and the addition of 5 μM Arl2·GppNHp or Arl3·GppNHp (arrow). (b) Fluorescence polarization measurements of 0.2 μM TAMRA-labelled INPP5E peptide followed by the addition of 0.2 μM PDE6δ (arrow) and 5 μM Arl2·GppNHp or Arl3·GppNHp (arrow). […]
as §1
Arl3•GTP. Fluorescence polarization measurements of 0.2 µM TAMRA-labeled […]

[3] = test system: PDE6δ; assay: Stopped-flow fluorescence polarization kinetics of mantGppNHp-loaded Arl proteins with PDE6δ; type: binding; details: for association rate constant kon with PDE6δ: 0.2 μM mantGppNHp-loaded Arl protein, increasing PDE6δ; for association rate constant kon with PDE6δ / dissociation rate constant koff from PDE6δ: 20 °C; for association rate constant kon with PDE6δ / dissociation rate constant koff from PDE6δ / Kd: n=4; for dissociation rate constant koff from PDE6δ: 2 μM PDE6δ with 0.2 μM mantGppNHp-loaded Arl protein, 200-fold excess unlabelled Arl protein; for Kd: calculated from kinetic constants, ± s.d., read-out: equilibrium dissociation constant Kd with PDE6δ (Kd=koff/kon)
Experimental: Previously we have shown that the N-terminal helix of Arl3 is important to release myristoylated cargo from a complex with the shuttle factor UNC119 (ref. [30]). To find out whether the N-terminus of Arl3 and/or Arl2 has a similar if any role in the interaction with PDE6δ, fluorescence polarization measurements using full-length Arl3 (Arl3^fl) or an N-terminal truncated form (Arl3^ΔN) were performed. […] To investigate the role of the N-terminal helix of Arl3 in the release mechanism, we measured association and dissociation rate constants to determine the affinity of PDE6δ towards Arl2 and Arl3 in both full-length and N-terminal truncated forms. Association rate constants between the four proteins Arl3^fl, Arl3^ΔN, Arl2^fl and Arl2^ΔN are rather similar although association is almost twice as fast for full-length Arl3 as compared with Arl2 (Fig. 3a,b). […] The Kd values for Arl2^fl and Arl3^fl differ from previously determined values, likely because of the different techniques used.
Figure 3 Contribution of the N-terminal helix of Arl3 to the binding affinity with PDE6δ. (a) Stopped-flow fluorescence polarization kinetic measurements of the association of 0.2 μM mantGppNHp loaded Arl proteins with increasing concentrations of PDE6δ. The observed pseudo-first order rate constants (kobs) are plotted against PDE6δ concentration. (b) Bar charts of the association rate constants (kon) determined in a. (c,d) Stopped-flow fluorescence polarization kinetic experiments where complexes of 2 μM PDE6δ with 0.2 μM of full-length (Arl^fl) or N-terminally deleted (Arl^ΔN) mantGppNHp loaded Arl proteins as indicated were mixed with 200-fold excess of unlabelled Arl proteins to determine koff. (e) Bar charts of the dissociation rate constants (koff) from experiments in c,d. (f) Bar charts of the equilibrium dissociation constants (Kd) of complexes between PDE6δ and Arl proteins as determined from the kinetic constants in c,e. Error bars indicate s.d., n=4. TEXT PRINTED IN THE PICTURE: (b) Arl3^fl: kon (μM^-1s^-1): 5.97 | (b) Arl3^ΔN: kon (μM^-1s^-1): 4.25 | (b) Arl2^fl: kon (μM^-1s^-1): 2.25 | (b) Arl2^ΔN: kon (μM^-1s^-1): 3.09 | (e) Arl3^fl: koff (s^-1): 0.035 | (e) Arl3^ΔN: koff (s^-1): 0.92 | (e) Arl2^fl: koff (s^-1): 0.33 | (e) Arl2^ΔN: koff (s^-1): 0.98 | (f) Arl3^fl: kd (nM): 5.84 | (f) Arl3^ΔN: kd (nM): 217 | (f) Arl2^fl: kd (nM): 149 | (f) Arl2^ΔN: kd (nM): 319
All fluorescence polarization measurements were performed at 20 °C in a buffer containing 25 mM Tris-HCl (pH 7.5), 50 mM NaCl and 3 mM DTE. For the titration measurement, data were recorded with Fluoromax-4 spectrophotometer (HORIBA Jobin Yvon, Munich, Germany) with excitation and emission wavelengths at 530 and 580 nm for TAMRA-labelled INPP5E peptide and at 495 and 520 nm for fluorescein-labelled Rheb peptide. The kinetic measurements were monitored by a stopped-flow apparatus (Applied Photophysics) in the polarization mode using an excitation wavelength of 366 nm and filter with 420 nm cutoff for mantGppNHp bound Arl protein, excitation wavelength of 495 nm and filter with 520 nm cutoff for fluorescein-labelled Rheb peptide and excitation wavelength of 530 nm and filter with 570 nm cutoff for TAMRA-labelled INPP5E peptide. Data analysis was done with GraFit 5.0 program (Erithracus Software). Concentrations used for each experiment are indicated in the corresponding figure legend.

| Kd ([3]; listed as Arl3^ΔN) [µM] | Kd [3] [µM] | Molecule | koff from PDE6δ in presence of Arl2·GppNHp ([1]; 10 μM Arl2·GppNHp) [s⁻¹] | koff from PDE6δ in presence of Arl3·GppNHp ([1]; 10 μM Arl3·GppNHp) [s⁻¹] | intrinsic dissociation rate koff from PDE6δ ([1]; absence of Arl2/3) [s⁻¹] | release of peptide from PDE6δ by Arl2·GppNHp or Arl3·GppNHp ([2]; 0.5 μM FITC-Rheb peptide + 0.5 μM PDE6δ or 0.2 μM TAMRA-INPP5E peptide + 0.2 μM PDE6δ, 5 μM Arl·GppNHp) | association rate constant kon with PDE6δ [3] [M⁻¹ s⁻¹] | association rate constant kon with PDE6δ ([3]; listed as Arl3^ΔN) [M⁻¹ s⁻¹] | dissociation rate constant koff from PDE6δ [3] [s⁻¹] | dissociation rate constant koff from PDE6δ ([3]; listed as Arl3^ΔN) [s⁻¹] | increase of affinity to PDE6δ by the N-terminal helix ([3]; Arl3 full-length versus ΔN) [fold] | release of INPP5E peptide from PDE6δ by Arl3 form ([2]; 0.2 μM TAMRA-labelled INPP5E peptide, 0.2 μM PDE6δ, 5 μM Arl3fl or Arl3ΔN) |
| --- | --- | --- | --- | --- | --- | --- | --- | --- | --- | --- | --- | --- |
| – | – | COC(=O)[C@H](CSC/C=C(\C)CC/C=C(\C)CCC=C(C)C)NC(=O)[C@H](CO)NC(=O)[C@H](CO)NC(=O)[C@H](CCCCN)NC(=O)CNC(=O)[C@H](CCC(N)=O)NC(=O)[C@H](CO)NC(=S)Nc1ccc2c(c1)C(=O)OC21c2ccc(O)cc2Oc2cc(O)ccc21 [Rheb peptide] ({FITC}-SQGKSSC(Farnesyl)-OMe; N-terminus and C-terminus assumed) | 15.3 ± 0.3 | 27.2 ± 0.7 | 0.95 ± 0.004 | can be released by both Arl2·GppNHp and Arl3·GppNHp | – | – | – | – | – | – |
| 0.217 ± 0.0043 | 0.00584 | Arl3^fl: full-length Arl3, GppNHp or mantGppNHp loaded | – | – | – | – | 5.97e+06 | 4.25e+06 | 0.035 | 0.92 | 37 | unable to release the INPP5E peptide |

From article PMC5512577, “PDE6δ-mediated sorting of INPP5E into the cilium is determined by cargo-carrier affinity” (Nature Communications, 2016)
